Experimental data: PubChem BioAssay AID1963831 (Molecular Pharmacology Branch, DTP, NCI, 2024)
pIC50: −log10 of the molar value.

System: 889142-216-R-J1-PDC complex spheroid viability
Assay: Anticancer human tumor 889142-216-R-J1-PDC patient-derived bladder carcinoma cell line growth inhibition [POLQ]
Settings: for pIC50: curve of first compound; for viability, T/C: stronger effect = lower value
How it was run: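 Growth inhibition in 3D: complex spheroids (tumor PDC, HUVEC, MSC) treated with POLQ inhibitor combinations; where Cmax unknown, highest tested concentration 10 microM, except SN-38 at 1 microM.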

[1] = second compound 0.0316 µM, first compound 0.0316 µM
[2] = second compound 0.0316 µM, first compound 0.1 µM
[3] = second compound 0.1 µM, first compound 0.0316 µM
[4] = second compound 0.1 µM, first compound 0.1 µM
[5] = second compound 0.316 µM, first compound 0.0316 µM
[6] = second compound 0.316 µM, first compound 0.1 µM
[7] = second compound 1 µM, first compound 0.0316 µM
[8] = second compound 1 µM, first compound 0.1 µM
[9] = second compound 3.16 µM, first compound 0.0316 µM
[10] = second compound 3.16 µM, first compound 0.1 µM
[11] = second compound 10 µM, first compound 0.0316 µM
[12] = second compound 10 µM, first compound 0.1 µM
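Note: spheroids exposed to compounds for seven days.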
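Throughout, for viability, T/C: 100% = DMSO vehicle control viability.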

CC1COCCN1c1cc(C2(O)CC3CCC(C2)O3)c2cnn(-c3ccn[nH]3)c2n1 (centres undefined) + COC1C(OC(N)=O)C(O)C(Oc2ccc3c(O)c(NC(=O)c4ccc(O)c(CC=C(C)C)c4)c(=O)oc3c2C)OC1(C)C showed a pIC50 (second compound 0.0316 µM) of 6.90, a pIC50 (second compound 0.1 µM) of 6.88 and a pIC50 (second compound 0.316 µM) of 6.74. The pIC50 (second compound 1 µM) was 6.71, the pIC50 (second compound 3.16 µM) was 6.77 and the pIC50 (second compound 10 µM) was 7.03. For the same molecule, the viability, T/C [1] was 64.3%, the viability, T/C [2] was 50.6% and the viability, T/C (second compound 0.0316 µM, first compound 0.316 µM) was 40.6%. It also gave a viability, T/C (second compound 0.0316 µM, first compound 1 µM) of 32.7%, a viability, T/C (second compound 0.0316 µM, first compound 3.16 µM) of 26.2% and a viability, T/C (second compound 0.0316 µM, first compound 10 µM) of 14.7%. It also gave a viability, T/C [3] of 69.9%, a viability, T/C [4] of 50.2% and a viability, T/C (second compound 0.1 µM, first compound 0.316 µM) of 38.6%. It also gave a viability, T/C (second compound 0.1 µM, first compound 1 µM) of 32.5%, a viability, T/C (second compound 0.1 µM, first compound 3.16 µM) of 27.5% and a viability, T/C (second compound 0.1 µM, first compound 10 µM) of 15.2%. For the same molecule, the viability, T/C [5] was 66.4%, the viability, T/C [6] was 53.6% and the viability, T/C (second compound 0.316 µM, first compound 0.316 µM) was 40.2%. It also gave a viability, T/C (second compound 0.316 µM, first compound 1 µM) of 37.5%, a viability, T/C (second compound 0.316 µM, first compound 3.16 µM) of 33.3% and a viability, T/C (second compound 0.316 µM, first compound 10 µM) of 13.2%. The viability, T/C [7] was 77.4%, the viability, T/C [8] was 54.9% and the viability, T/C (second compound 1 µM, first compound 0.316 µM) was 42.4%. The viability, T/C (second compound 1 µM, first compound 1 µM) was 32.2%, the viability, T/C (second compound 1 µM, first compound 3.16 µM) was 29.5% and the viability, T/C (second compound 1 µM, first compound 10 µM) was 12.7%. For the same molecule, the viability, T/C [9] was 64.3%, the viability, T/C [10] was 54.5% and the viability, T/C (second compound 3.16 µM, first compound 0.316 µM) was 40.5%. It also gave a viability, T/C (second compound 3.16 µM, first compound 1 µM) of 39.2%, a viability, T/C (second compound 3.16 µM, first compound 3.16 µM) of 25.2% and a viability, T/C (second compound 3.16 µM, first compound 10 µM) of 14.1%. For the same molecule, the viability, T/C [11] was 65.2%, the viability, T/C [12] was 43.2% and the viability, T/C (second compound 10 µM, first compound 0.316 µM) was 39.2%. It also gave a viability, T/C (second compound 10 µM, first compound 1 µM) of 30.6%, a viability, T/C (second compound 10 µM, first compound 3.16 µM) of 30.1% and a viability, T/C (second compound 10 µM, first compound 10 µM) of 13.9%.

Cn1ncnc1[C@H]1c2n[nH]c(=O)c3cc(F)cc(c23)N[C@@H]1c1ccc(F)cc1 + Cc1cccc(N(C)C(=O)C2C(O)CCN2c2nc(C)cc(C(F)(F)F)c2C#N)c1 was tested, and the pIC50 (second compound 0.0316 µM) was < 7.00, the pIC50 (second compound 0.1 µM) was < 7.00 and the pIC50 (second compound 0.316 µM) was < 7.00. The pIC50 (second compound 1 µM) was < 7.00, the pIC50 (second compound 3.16 µM) was < 7.00 and the pIC50 (second compound 10 µM) was < 7.00. It also gave a viability, T/C (second compound 0.0316 µM, first compound 0.000316 µM) of 100%, a viability, T/C (second compound 0.0316 µM, first compound 0.001 µM) of 93.9% and a viability, T/C (second compound 0.0316 µM, first compound 0.00316 µM) of 132%. For the same molecule, the viability, T/C (second compound 0.0316 µM, first compound 0.01 µM) was 74%, the viability, T/C [1] was 85.1% and the viability, T/C [2] was 67.8%. It also gave a viability, T/C (second compound 0.1 µM, first compound 0.000316 µM) of 128%, a viability, T/C (second compound 0.1 µM, first compound 0.001 µM) of 101% and a viability, T/C (second compound 0.1 µM, first compound 0.00316 µM) of 130%. It also gave a viability, T/C (second compound 0.1 µM, first compound 0.01 µM) of 104%, a viability, T/C [3] of 87.9% and a viability, T/C [4] of 71.3%. For the same molecule, the viability, T/C (second compound 0.316 µM, first compound 0.000316 µM) was 109%, the viability, T/C (second compound 0.316 µM, first compound 0.001 µM) was 111% and the viability, T/C (second compound 0.316 µM, first compound 0.00316 µM) was 91.7%. The viability, T/C (second compound 0.316 µM, first compound 0.01 µM) was 93.1%, the viability, T/C [5] was 80.4% and the viability, T/C [6] was 65.5%. It also gave a viability, T/C (second compound 1 µM, first compound 0.000316 µM) of 97.5%, a viability, T/C (second compound 1 µM, first compound 0.001 µM) of 110% and a viability, T/C (second compound 1 µM, first compound 0.00316 µM) of 92%. For the same molecule, the viability, T/C (second compound 1 µM, first compound 0.01 µM) was 92.9%, the viability, T/C [7] was 81.9% and the viability, T/C [8] was 72.9%. It also gave a viability, T/C (second compound 3.16 µM, first compound 0.000316 µM) of 109%, a viability, T/C (second compound 3.16 µM, first compound 0.001 µM) of 105% and a viability, T/C (second compound 3.16 µM, first compound 0.00316 µM) of 82.7%. The viability, T/C (second compound 3.16 µM, first compound 0.01 µM) was 73.6%, the viability, T/C [9] was 75.5% and the viability, T/C [10] was 73.4%. For the same molecule, the viability, T/C (second compound 10 µM, first compound 0.000316 µM) was 83.8%, the viability, T/C (second compound 10 µM, first compound 0.001 µM) was 71.6% and the viability, T/C (second compound 10 µM, first compound 0.00316 µM) was 69.1%. The viability, T/C (second compound 10 µM, first compound 0.01 µM) was 77.1%, the viability, T/C [11] was 81.5% and the viability, T/C [12] was 62.5%.
